Calls of active or inactive are those of the source. No cut-off for these calls is given here. Numbered stars: 1 amine (or outer) side, 2 acyl side, 3 side chain; on linkers, the order of the positions; unused ones are H or OH. Square brackets hold non-standard residues; d marks the D form. Peptide text beside a SMILES is read from it. * marks the point of attachment. X26 = O=C(O)c1cc(NC(=S)c2ccc(S(=O)(=O)*)cc2)ccc1-c1c2ccc(=O)cc-2oc2cc(O)ccc12; Benzenesulfonyl(2-NO2) = O=[N+]([O-])c1ccccc1S(=O)(=O)*; Benzenesulfonyl(4-OMe) = COc1ccc(S(=O)(=O)*)cc1; Benzenesulfonyl(4-F) = O=S(=O)(c1ccc(F)cc1)*; X3 = N[C@@H](Cc1ccccc1)CN(CC(=O)[*:2])[*:1]; X2 = CC(C)C[C@H](N)CN(CC(=O)[*:2])[*:1]; Tos = Cc1ccc(S(=O)(=O)*)cc1
Legend:
Staphylococcus aureus [1] = experiment: Antimicrobial activity against methicillin resistant Staphylococcus aureus ATCC 33591 infected in BALB/c mouse assessed as reduction in sessile bacteria attached on catheters surface at 0.25 to 1 mg/kg infected with bacteria for 2 hrs prior to compound addition on 1, 24 and 48 hrs and measured after 72 hrs […]; format: functional, organism-based; conditions: dose 0.25-1 mg/kg
[2] = Stability in mouse serum assessed as half life incubated for 6 hrs by HPLC analysis; format: ADME, cell-free
Erythrocyte = experiment: Hemolytic activity against mouse red blood cells incubated for 1 hr; format: toxicity, cell-based
Cell membrane = experiment: Induction of membrane disruption in Pseudomonas aeruginosa ATCC 27853 after 30 mins by confocal laser scanning microscopic analysis; format: subcellular
Staphylococcus aureus [3] = experiment: Induction of resistant development in Staphylococcus aureus ATCC 25923 assessed as fold increase by serial passage assay; format: functional
Staphylococcus aureus [4] = experiment: Induction of resistant development in methicillin resistant Staphylococcus aureus ATCC 33591 assessed as fold increase by serial passage assay; format: functional
Pseudomonas aeruginosa [5] = experiment: Induction of resistant development in Pseudomonas aeruginosa ATCC 27853 assessed as fold increase in MIC after 20 days; format: functional; conditions: time 20 day
Pseudomonas aeruginosa [6] = experiment: Antimicrobial activity against multidrug resistant Pseudomonas aeruginosa ATCC 27853 assessed as fold increase incubated for 18 hrs by microdilution method; format: functional

For CN[C@H](CC(C)C)C(=O)N[C@H]1C(=O)N[C@@H](CC(N)=O)C(=O)N[C@H]2C(=O)N[C@H]3C(=O)N[C@H](C(=O)N[C@H](C(=O)O)c4cc(O)cc(O)c4-c4cc3ccc4O)[C@H](O)c3ccc(c(Cl)c3)Oc3cc2cc(c3O[C@@H]2O[C@H](CO)[C@@H](O)[C@H](O)[C@H]2O[C@H]2C[C@](C)(N)[C@H](O)[C@H](C)O2)Oc2ccc(cc2Cl)[C@H]1O, the Activity (Staphylococcus aureus [1]) was “Active”.
In the case of Cc1ccc(S(=O)(=O)N(CC(=O)N[C@@H](CCCCN)C(=O)N[C@@H](CC(C)C)C(=O)N[C@@H](CC(C)C)C(=O)N[C@@H](CCCCN)C(=O)N[C@@H](CCCCN)C(=O)N[C@@H](CC(C)C)C(=O)N[C@@H](CC(C)C)C(N)=O)C[C@@H](N)Cc2ccccc2)cc1 (Tos-[X3]KLLKKLL-NH2), the half-life [2] is reported as 6.97 h and the MHC (Erythrocyte) is reported as 256 µg/mL.
In the case of CC(C)C[C@H](N)CN(CC(=O)N[C@@H](CCCCN)C(=O)N[C@@H](CC(C)C)C(=O)N[C@@H](CC(C)C)C(=O)N[C@@H](CCCCN)C(=O)N[C@@H](CCCCN)C(=O)N[C@@H](CC(C)C)C(=O)N[C@@H](CC(C)C)C(N)=O)S(=O)(=O)c1ccc(C(=S)Nc2ccc(-c3c4ccc(=O)cc-4oc4cc(O)ccc34)c(C(=O)O)c2)cc1 (X26-[X2]KLLKKLL-NH2), the Activity (Cell membrane) is reported as “Active”.
CC(C)C[C@H](N)CN(CC(=O)N[C@@H](CCCCN)C(=O)N[C@@H](CC(C)C)C(=O)N[C@@H](CC(C)C)C(=O)N[C@@H](CCCCN)C(=O)N[C@@H](CCCCN)C(=O)N[C@@H](CC(C)C)C(=O)N[C@@H](CC(C)C)C(N)=O)S(=O)(=O)c1ccccc1[N+](=O)[O-] ({Benzenesulfonyl(2-NO2)}-[X2]KLLKKLL-NH2) gave an MHC (Erythrocyte) of 256 µg/mL.
Compound CC(C)C[C@H](NC(=O)[C@H](CC(C)C)NC(=O)[C@H](CCCCN)NC(=O)[C@H](CCCCN)NC(=O)[C@H](CC(C)C)NC(=O)[C@H](CC(C)C)NC(=O)[C@H](CCCCN)NC(=O)CN(C[C@@H](N)Cc1ccccc1)S(=O)(=O)c1ccccc1[N+](=O)[O-])C(N)=O ({Benzenesulfonyl(2-NO2)}-[X3]KLLKKLL-NH2) has an MHC (Erythrocyte) of 256 µg/mL.
CC(C)C[C@H](N)CN(CC(=O)N[C@@H](CCCCN)C(=O)N[C@@H](CC(C)C)C(=O)N[C@@H](CC(C)C)C(=O)N[C@@H](CCCCN)C(=O)N[C@@H](CCCCN)C(=O)N[C@@H](CC(C)C)C(=O)N[C@@H](CC(C)C)C(N)=O)S(=O)(=O)c1ccc(F)cc1 ({Benzenesulfonyl(4-F)}-[X2]KLLKKLL-NH2) gave an MHC (Erythrocyte) of 256 µg/mL.
With CC(C)C[C@H](NC(=O)[C@H](CC(C)C)NC(=O)[C@H](CCCCN)NC(=O)[C@H](CCCCN)NC(=O)[C@H](CC(C)C)NC(=O)[C@H](CC(C)C)NC(=O)[C@H](CCCCN)NC(=O)CN(C[C@@H](N)Cc1ccccc1)S(=O)(=O)c1ccc(F)cc1)C(N)=O ({Benzenesulfonyl(4-F)}-[X3]KLLKKLL-NH2) the MHC (Erythrocyte) was 256 µg/mL.
With COc1ccc(S(=O)(=O)N(CC(=O)N[C@@H](CCCCN)C(=O)N[C@@H](CC(C)C)C(=O)N[C@@H](CC(C)C)C(=O)N[C@@H](CCCCN)C(=O)N[C@@H](CCCCN)C(=O)N[C@@H](CC(C)C)C(=O)N[C@@H](CC(C)C)C(N)=O)C[C@@H](N)CC(C)C)cc1 ({Benzenesulfonyl(4-OMe)}-[X2]KLLKKLL-NH2) the MHC (Erythrocyte) was 256 µg/mL.
Compound COc1ccc(S(=O)(=O)N(CC(=O)N[C@@H](CCCCN)C(=O)N[C@@H](CC(C)C)C(=O)N[C@@H](CC(C)C)C(=O)N[C@@H](CCCCN)C(=O)N[C@@H](CCCCN)C(=O)N[C@@H](CC(C)C)C(=O)N[C@@H](CC(C)C)C(N)=O)C[C@@H](N)Cc2ccccc2)cc1 ({Benzenesulfonyl(4-OMe)}-[X3]KLLKKLL-NH2) has an MHC (Erythrocyte) of 256 µg/mL.
In the case of CC1(C)S[C@@H]2[C@H](NC(=O)[C@H](N)c3ccc(O)cc3)C(=O)N2[C@H]1C(=O)O [AMOXICILLIN], the “fold change (FC)” value (Staphylococcus aureus [3]) is reported as 4096 and the “fold change (FC)” value (Staphylococcus aureus [4]) is reported as 4096.
With C[C@H]1[C@H](NC(=O)/C(=N\OC(C)(C)C(=O)O)c2csc(N)n2)C(=O)N1S(=O)(=O)O [AZTREONAM] the “fold change (FC)” value (Pseudomonas aeruginosa [5]) was 32 and the “fold change (FC)” value (Pseudomonas aeruginosa [6]) was 2.
In the case of CC(C)(O/N=C(\C(=O)N[C@@H]1C(=O)N2C(C(=O)[O-])=C(C[n+]3ccccc3)CS[C@H]12)c1csc(N)n1)C(=O)O [CEFTAZIDIME], the “fold change (FC)” value (Pseudomonas aeruginosa [5]) is reported as 256.
For C[C@@H](O)[C@H]1C(=O)N2C(C(=O)O)=C(SCCNC=N)C[C@H]12 [IMIPENEM ANHYDROUS], the “fold change (FC)” value (Pseudomonas aeruginosa [5]) was 16 and the “fold change (FC)” value (Pseudomonas aeruginosa [6]) was 1.
Work on H-FLKLLKKLL-NH2 yielded a half-life [2] of 1.28 h and an MHC (Erythrocyte) of 256 µg/mL.

— ChEMBL document CHEMBL5380773, “Novel Feleucin-K3-Derived Peptides Modified with Sulfono-γ-AA Building Blocks Targeting Pseudomonas aeruginosa and Methicillin-Resistant Staphylococcus aureus Infections” (J Med Chem, 2023)
